System: Hep3B human hepatocarcinoma cells
Test: Cell proliferation assay (presto blue, 72 h)
Assay type: cell-based
Conditions: for Hep3B cell proliferation compared to control, compound alone: 100 μM; for Hep3B cell proliferation compared to control, compound alone / IC50 / inhibition of Hep3B cell proliferation in combination with lenvatinib vs each agent alone / inhibition of Hep3B cell proliferation in combination with regorafenib vs individual effects / inhibition of Hep3B cell proliferation in combination with sorafenib vs each agent alone: 72 h; for IC50: Homo sapiens, Hep3B, read-out: Hep3B (IC50), anti-proliferation activity; for inhibition of Hep3B cell proliferation in combination with lenvatinib vs each agent alone: compound 100 μM + lenvatinib 0.5 μM; for inhibition of Hep3B cell proliferation in combination with regorafenib vs individual effects: compound 100 μM + regorafenib 1.5 μM; for inhibition of Hep3B cell proliferation in combination with sorafenib vs each agent alone: compound 100 μM + sorafenib 3 μM
Protocol: Cell cultures. Hep3B (ATCC) and Hepa1-6 (ATCC) cells were seeded in 96-well plates at a density of 3000 cells/well with complete media. On day 2, media in each well was aspirated and replaced with 100 μl of fresh complete media and cells were treated with or without Compound I-1, Compound I-32, Compound I1-84, and Compound I-85, in a concentration dependent manner. Then, cells were incubated in an incubator for 72 h. On day 5, 10 μl of presto blue (Invitrogen, cat #A13261) cell viability reagent was added in each 96-well plate and incubated at 37° C. for 1-2 h. After incubation, fluorescence was measured with an excitation/emission wavelength of 560/590 nm.
Proliferation assay. Hep3B (ATCC) and Hepa1-6 (ATCC) cells were seeded in 96-well plates at a density of 3000 cells/well with complete media. On day 2, media in each well was aspirated and replaced with 100 μl of fresh complete media and cells were treated with/without testing compounds in a concentration dependent manner. Then, cells were incubated in an incubator for 72 h. On day 5, 10 μl of presto blue (Invitrogen, cat #A13261) cell viability reagent was added in each 96-well plate and incubated at 37° C. for 1-2 h. After incubation, fluorescence was measured with an excitation/emission wavelength of 560/590 nm. Anti-proliferative combination effects of Compound I-1 or Compound I-32 and regorafenib were determined in Hep3B and Hepa1-6 cells. Drug combination interaction was determined by the Chou-Talalay method (23), which is based on well-known equations for different reaction sequences and mechanisms, and different types of inhibition. These equations provide the theoretical basis for the combination index (CI)-isobologram equation that allows quantitative determination of drug interactions, where CI<1, =1, and >1 indicate synergism, additive effect, and antagonism, respectively. CI is calculated based on in vitro measurements implemented in the Compusyn software (www.combosyn.com), a platform for drug combinations pharmacodynamics with automated simulations. The software calculates CI based on the Fractional Inhibition (Fa), which is the potency expressed by the average effect values for each drug concentrations as determined by in vitro experiments. The dose-effect data entries are utilized for automated computerized analysis by the Compusyn software.
Data entered was obtained by in vitro experiments performed as follows: Hep3B or Hepa 1-6 cells were plated in a 96-well format and cell proliferation rates were determined as described above. Cells were treated with 5 doses of each test agent alone at the following concentrations: compounds of the invention dosed at 1, 5, 10, 50, or 100 μM for both Hep3B and Hepa1-6 cells, regorafenib dosed at 0.015, 0.075, 0.15, 0.75, and 1.5 μM for Hep3B cells or 0.05, 0.25, 0.5, 2.5, 5 μM for Hepa 1-6 cells. […]. Data are shown as Fa-CI plots where CI is the combination index and Fa is fractional inhibition. Results were indicated as mean±standard deviation (SD). All bar diagrams and line graphs were prepared using Graph Pad Prism 8 software. Drug synergy was calculated using the CompuSyn software.
Methods: Hep3B cells (supplied by ATCC) and Hepa1-6 cells (supplied by ATCC) were seeded in 96-well plates at a density of 3000 cells/well with complete media. On day 2, the media in each well was aspirated and replaced with 100 μL of fresh complete media, and the cells were treated in a concentration dependent manner with either Compound I-1, Compound I-32, Compound I-84, Compound I-85, sorafenib, lenvatinib, Compound I-1 in combination with sorafenib. Compound I-1 in combination with lenvatinib, Compound I-32 in combination with sorafenib, or Compound I-32 in combination with lenvatinib. The cells were then incubated in an incubator at 37° C. for 72 h. On day 5, 10 μL of presto blue (Invitrogen, cat #A13261) cell viability reagent was added to each 96-well plate and incubated at 37° C. for 1-2 h. […]

| Structure (SMILES) | Hep3B cell proliferation compared to control, compound alone | IC50 [µM] | synergism with sorafenib (CompuSyn CI), Hep3B cells (compound 5 μM and sorafenib 0.15 μM) | synergism with lenvatinib (CompuSyn CI), Hep3B cells (compound 10 μM and lenvatinib 0.05 μM) | inhibition of Hep3B cell proliferation in combination with lenvatinib vs each agent alone | inhibition of Hep3B cell proliferation in combination with regorafenib vs individual effects | inhibition of Hep3B cell proliferation in combination with sorafenib vs each agent alone | synergism with lenvatinib (CompuSyn CI), Hep3B cells (compound and lenvatinib: 50 μM and 0.25 μM, 100 μM and 0.5 μM) | synergism with sorafenib (CompuSyn CI), Hep3B cells (compound and sorafenib: 1 μM and 0.03 μM, 50 μM and 1.5 μM, 100 μM and 3 μM) | synergism with sorafenib (CI), Hep3B cells (all tested concentrations: 1 μM and 0.05 μM, 5 μM and 0.15 μM, 10 μM and 0.3 μM, 50 μM and 1.5 μM, 100 μM and 3 μM) | synergism with lenvatinib (CompuSyn CI), Hep3B cells (compound 5 μM and lenvatinib 0.025 μM) | synergism with lenvatinib (CompuSyn CI), Hep3B cells (compound and lenvatinib: 1 μM and 0.005 μM, 10 μM and 0.05 μM, 50 μM and 0.25 μM, 100 μM and 0.5 μM) |
| --- | --- | --- | --- | --- | --- | --- | --- | --- | --- | --- | --- | --- |
| CC(C)(CCCCc1ccc(CCCCC(C)(C)C(=O)O)cc1)C(=O)O [Compound I-1, 6-[4-(5-carboxy-5-methylhexyl)-phenyl]-2,2-dimethylhexanoic acid] | inhibited Hep3B cell proliferation compared to control | > 100 | Modest synergism | Moderate synergism | significantly greater inhibition of Hep3B cell proliferation | greater inhibition of cell proliferation compared to their individual effects | significantly greater inhibition of Hep3B cell proliferation | significant synergism | significant synergism | – | – | – |
| CC(C)(CCCCc1cccc(CCCCC(C)(C)C(=O)O)c1)C(=O)O [Compound I-32, 6-[3-(5-carboxy-5-methylhexyl)-phenyl]-2,2-dimethylhexanoic acid] | inhibited Hep3B cell proliferation compared to control | > 100 | – | – | significantly greater inhibition of Hep3B cell proliferation | greater inhibition of cell proliferation compared to their individual effects | significantly greater inhibition of Hep3B cell proliferation | – | – | synergism | Modest synergism | significant synergism |
